Measured values taken from patent publication US20250340574A1, “MODULATORS OF CYSTIC FIBROSIS TRANSMEMBRANE CONDUCTANCE REGULATOR” (Vertex Pharmaceuticals Incorporated, priority 2022, published 2025).
Like-named read-outs stand apart in the source and are kept apart here.

Molecular target: T1, CFTR (F508del/MF-HBE cells) (Homo sapiens, UniProt P13569, DEL508-508)
T1 construct: human bronchial epithelial (HBE) cells derived from CF subjects heterozygous for F508del and a minimal function CFTR mutation (F508del/MF-HBE); endogenous in cells; host or cells: Primary human bronchial epithelial cells from CF subjects (F508del/MF genotype), differentiated at an air-liquid interface
T1 sequence (P13569 with tags, fused parts or gaps DEL508-508): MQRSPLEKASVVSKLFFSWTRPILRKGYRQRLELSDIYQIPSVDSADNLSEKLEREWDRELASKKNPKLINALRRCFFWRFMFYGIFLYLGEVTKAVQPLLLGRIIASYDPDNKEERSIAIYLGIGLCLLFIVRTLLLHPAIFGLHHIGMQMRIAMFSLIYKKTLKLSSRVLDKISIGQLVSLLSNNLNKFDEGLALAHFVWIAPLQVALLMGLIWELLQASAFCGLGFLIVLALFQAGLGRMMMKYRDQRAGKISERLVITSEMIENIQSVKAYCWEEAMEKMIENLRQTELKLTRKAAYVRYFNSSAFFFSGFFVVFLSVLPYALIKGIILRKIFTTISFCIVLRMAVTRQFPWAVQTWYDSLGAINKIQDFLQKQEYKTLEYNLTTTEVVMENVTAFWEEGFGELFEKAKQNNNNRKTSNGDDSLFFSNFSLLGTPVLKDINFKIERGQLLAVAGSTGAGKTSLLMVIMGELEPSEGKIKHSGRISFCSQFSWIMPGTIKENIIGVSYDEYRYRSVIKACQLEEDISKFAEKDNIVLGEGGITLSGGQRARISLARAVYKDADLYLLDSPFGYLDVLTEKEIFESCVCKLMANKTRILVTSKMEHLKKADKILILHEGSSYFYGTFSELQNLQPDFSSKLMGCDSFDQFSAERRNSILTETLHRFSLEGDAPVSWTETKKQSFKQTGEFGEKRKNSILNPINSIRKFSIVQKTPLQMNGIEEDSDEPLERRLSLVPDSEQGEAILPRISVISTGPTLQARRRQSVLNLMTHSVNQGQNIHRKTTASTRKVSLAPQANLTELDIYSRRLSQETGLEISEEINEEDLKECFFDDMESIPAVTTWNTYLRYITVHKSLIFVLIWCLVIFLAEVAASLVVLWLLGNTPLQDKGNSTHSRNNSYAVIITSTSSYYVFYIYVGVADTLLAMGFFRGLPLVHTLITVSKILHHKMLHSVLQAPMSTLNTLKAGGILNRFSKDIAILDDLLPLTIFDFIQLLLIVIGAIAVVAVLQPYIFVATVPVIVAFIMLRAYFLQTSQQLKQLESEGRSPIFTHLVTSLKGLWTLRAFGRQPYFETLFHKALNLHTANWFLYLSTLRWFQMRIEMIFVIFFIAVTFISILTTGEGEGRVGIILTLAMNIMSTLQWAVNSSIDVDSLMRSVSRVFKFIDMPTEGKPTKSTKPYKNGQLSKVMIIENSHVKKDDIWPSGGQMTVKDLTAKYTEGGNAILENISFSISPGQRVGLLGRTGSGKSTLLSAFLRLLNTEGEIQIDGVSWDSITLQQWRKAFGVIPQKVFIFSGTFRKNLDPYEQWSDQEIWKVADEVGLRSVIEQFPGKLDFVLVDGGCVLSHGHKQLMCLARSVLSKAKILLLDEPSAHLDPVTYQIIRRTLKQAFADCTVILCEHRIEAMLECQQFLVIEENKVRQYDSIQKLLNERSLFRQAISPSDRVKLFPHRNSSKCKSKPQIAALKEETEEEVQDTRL
Assay: Ussing chamber assay of CFTR-mediated short-circuit currents, Assay C (0.026 μM to 25 μM, 6 concentrations)
Format: cell-based
Details: with 33 nM potentiator and 18 μM Tezacaftor, 20% human serum; for Emax: read-out: C Max activity (%)
Protocol: Ussing chamber experiments were performed using human bronchial epithelial (HBE) cells derived from CF subjects heterozygous for F508del and a minimal function CFTR mutation (F508del/MF-HBE) and cultured as previously described (Neuberger T, Burton B, Clark H, Van Goor F Methods Mol Biol 2011:741:39-54). After four days the apical media was removed, and the cells were grown at an air liquid interface for >14 days prior to use.
To isolate the CFTR-mediated short-circuit (ISC) current, F508del/MF-HBE grown on Costar® Snapwell™ cell culture inserts were mounted in an Ussing chamber and the transepithelial ISC was measured under voltage-clamp recording conditions (Vhold=0 mV) at 37° C. The basolateral solution contained (in mM) 145 NaCl, 0.83 K2HPO4, 3.3 KH2PO4, 1.2 MgCl2, 1.2 CaCl2, 10 Glucose, 10 HEPES (pH adjusted to 7.4 with NaOH) and the apical solution contained (in mM) 145 NaGluconate, 1.2 MgCl2, 1.2 CaCl2, 10 glucose, 10 HEPES (pH adjusted to 7.4 with NaOH) and 30 μM amiloride to block the epithelial sodium channel. Forskolin (20 μM) was added to the apical surface to activate CFTR, followed by apical addition of a CFTR inhibitor cocktail consisting of BPO, GlyH-101, and CFTR inhibitor 172 (each at 20 μM final assay concentration) to specifically isolate CFTR currents. The CFTR-mediated ISC (μA/cm^2) for each condition was determined from the peak forskolin response to the steady-state current following inhibition.
The activity of the CFTR corrector compounds on the CFTR-mediated ISC was determined in Ussing chamber studies as described above. The F508del/MF-HBE cell cultures were either incubated with the corrector compounds at a range of concentrations in combination with 33 nM (6R,12R)-17-amino-12-methyl-6,15-bis(trifluoromethyl)-13,19-dioxa-3,4,18-triazatricyclo[12.3.1.12,5]nonadeca-1(18),2,4,14,16-pentaen-6-ol and 18 μM Tezacaftor or were incubated with the corrector compounds at a single fixed concentration of 1 μM in combination with 44 nM (6R,12R)-17-amino-12-methyl-6,15-bis(trifluoromethyl)-13,19-dioxa-3,4,18-triazatricyclo[12.3.1.12,5]nonadeca-1(18),2,4,14,16-pentaen-6-ol and 18 μM Tezacaftor for 18-24 hours at 37° C. and in the presence of 20% human serum. The concentration of corrector compounds with 44 nM or 33 nM (6R,12R)-17-amino-12-methyl-6,15-bis(trifluoromethyl)-13,19-dioxa-3,4,18-triazatricyclo[12.3.1.12,5]nonadeca-1(18),2,4,14,16-pentaen-6-ol and 18 μM Tezacaftor during the 18-24 hours incubations was kept constant throughout the Ussing chamber measurement of the CFTR-mediated ISC to ensure compounds were present throughout the entire experiment. The efficacy and potency of the putative F508del correctors was compared to that of the known Vertex corrector, (14S)-8-[3-(2-{Dispiro[2.0.2.1]heptan-7-yl}ethoxy)-1H-pyrazol-1-yl]-12,12-dimethyl-2λ^6-thia-3,9,11,18,23-pentaazatetracyclo[17.3.1.111,14.05,10]tetracosa-1(22),5,7,9,19(23),20-hexaene-2,2,4-trione, in combination with 18 μM Tezacaftor and 1 μM Ivacaftor.
• Assay A: 0.1 μM to 25 μM, 6 concentrations • Assay B: 0.00001 μM to 25 μM, 12 concentrations • Assay C: 0.026 μM to 25 μM, 6 concentrations • Assay D: Activity at single concentration of 1 μM

Cc1cccc(CC2CCCCC2)c1-c1nc2nc(c1C)OC[C@@H](CC(C)(C)C)N(Cc1cnc3cc(C(C)C)n(C)c3n1)C(=O)c1cccc(c1)S(=O)(=O)N2 (atropisomer, axis not shown) [Compound I-178]
Emax (18-24 hours): > 60%
EC50: < 1000 nM

Cc1cccc(C(C)C)c1-c1nc2nc(c1C)OC[C@@H](CC(C)(C)C)N(Cc1cnc3cc(C(C)C)n(C)c3n1)C(=O)c1cccc(c1)S(=O)(=O)N2 (atropisomer, axis not shown) [Compound I-179]
Emax (18-24 hours): > 60%
EC50: 3000 to 30000 nM

Cc1cccc(CC(C)(C)C)c1-c1nc2nc(c1C)OC[C@@H](CC(C)(C)C)N(Cc1cnc3oc(C(C)(C)C)cc3n1)C(=O)c1cccc(c1)S(=O)(=O)N2 (atropisomer, axis not shown) [Compound I-245]
Emax (18-24 hours): > 60%
EC50: < 1000 nM

Cc1cccc(OC(C)C)c1-c1nc2nc(c1C)OC[C@@H](CC(C)(C)C)N(Cc1cnc3oc(C(C)(C)C)cc3n1)C(=O)c1cccc(c1)S(=O)(=O)N2 (atropisomer, axis not shown) [Compound I-249]
Emax (18-24 hours): > 60%
EC50: 1000 to 3000 nM

Cc1cccc(CC(C)C)c1-c1nc2nc(c1C)OC[C@@H](CC(C)(C)C)N(Cc1cnc3oc(C4(C)CC4)cc3n1)C(=O)c1cccc(c1)S(=O)(=O)N2 (atropisomer, axis not shown) [Compound I-257]
Emax (18-24 hours): > 60%
EC50: 1000 to 3000 nM

Cc1cccc(OC(C)C)c1-c1nc2nc(c1C)OC[C@@H](CC(C)(C)C)N(Cc1cnc3cc(C(C)(C)C)n(C)c3n1)C(=O)c1cccc(c1)S(=O)(=O)N2 (atropisomer, axis not shown) [Compound I-260]
Emax (18-24 hours): > 60%
EC50: < 1000 nM

Cc1cccc(CC(C)C)c1-c1nc2nc(c1C)OC[C@@H](CC(C)(C)C)N(Cc1ncc3cc(C4CC4)n(C)c3n1)C(=O)c1cccc(c1)S(=O)(=O)N2 (atropisomer, axis not shown) [IV-25]
EC50: 1000 to 3000 nM
Emax: > 60%

Cc1cccc(CC(C)C)c1-c1nc2nc(c1C)OC[C@@H](COC(C)C)N(Cc1cnc3oc(C(C)(C)C)cc3n1)C(=O)c1cccc(c1)S(=O)(=O)N2 (atropisomer, axis not shown) [IV-43]
EC50: 1000 to 3000 nM
Emax: > 60%

Cc1cccc(CC(C)C)c1-c1nc2nc(c1C)OC[C@@H](CC1(C)CC1)N(Cc1cnc3cc(C4(C(F)(F)F)CC4)n(C)c3n1)C(=O)c1cccc(c1)S(=O)(=O)N2 (atropisomer, axis not shown) [IV-77]
EC50: 1000 to 3000 nM
Emax: > 60%

Cc1cccc(CC(C)C)c1-c1nc2nc(c1C)OC[C@@H](C(C)C)N(Cc1cnc3cc(C(C)(C)C)n(C)c3n1)C(=O)c1cccc(c1)S(=O)(=O)N2 (atropisomer, axis not shown) [IV-79]
EC50: < 1000 nM
Emax: > 60%

Cc1cccc(CC(C)C)c1-c1nc2nc(c1C)OC[C@@H](C[C@@H]1CCCCO1)N(Cc1cnc3cc(C(C)(C)C)n(C)c3n1)C(=O)c1cccc(c1)S(=O)(=O)N2 (atropisomer, axis not shown) [IV-81]
EC50: < 1000 nM
Emax: > 60%

Cc1cccc(CC(C)C)c1-c1nc2nc(c1C)OC[C@@H]([C@@H]1CCCO1)N(Cc1cnc3cc(C(C)(C)C)n(C)c3n1)C(=O)c1cccc(c1)S(=O)(=O)N2 (atropisomer, axis not shown) [IV-95]
EC50: < 1000 nM
Emax: > 60%

Cc1cccc(CC2CCCC2)c1-c1nc2nc(c1C)OC[C@@H](CC(C)(C)C)N(Cc1cnc3cc(C(C)C)n(C)c3n1)C(=O)c1cccc(c1)S(=O)(=O)N2 (atropisomer, axis not shown; (P)) [Compound I-196, (5P,11R)-6-[2-(cyclopentylmethyl)-6-methylphenyl]-11-(2,2-dimethylpropyl)-7-methyl-12-{[5-methyl-6-(propan-2-yl)-5H-pyrrolo[2,3-b]pyrazin-3-yl]methyl}-9-oxa-2λ^6-thia-3,5,12,19-tetraazatricyclo[12.3.1.1∧{4,8}]nonadeca-1(17),4(19),5,7,14(18),15-hexaene-2,2,13-trione]
Emax (18-24 hours): > 60%
EC50: < 1000 nM

Cc1cccc(CC(C)C)c1-c1nc2nc(c1C)OC[C@@H](COC(F)(F)F)N(Cc1cnc3cc(C(C)(C)C)n(C)c3n1)C(=O)c1cccc(c1)S(=O)(=O)N2 (atropisomer, axis not shown; (P)) [IV-70, (6P,11S)-12-({6-tert-butyl-5-methyl-5H-pyrrolo[2,3-b]pyrazin-3-yl}methyl)-7-methyl-6-[2-methyl-6-(2-methylpropyl)phenyl]-11-[(trifluoromethoxy)methyl]-9-oxa-2λ^6-thia-3,5,12,19-tetraazatricyclo[12.3.1.1∧{4,8}]nonadeca-1(17),4,6,8(19),14(18),15-hexaene-2,2,13-trione]
EC50: 1000 to 3000 nM
Emax: > 60%

Cc1cccc(CC(C)C)c1-c1nc2nc(c1C)OC[C@@H](COC(C)C)N(Cc1cnc3cc(C4(C(F)(F)F)CC4)n(C)c3n1)C(=O)c1cccc(c1)S(=O)(=O)N2 (atropisomer, axis not shown; (P)) [IV-76, (5P,11R)-7-methyl-6-[2-methyl-6-(2-methylpropyl)phenyl]-12-({5-methyl-6-[1-(trifluoromethyl)cyclopropyl]-5H-pyrrolo[2,3-b]pyrazin-3-yl}methyl)-11-[(propan-2-yloxy)methyl]-9-oxa-2λ^6-thia-3,5,12,19-tetraazatricyclo[12.3.1.1∧{4,8}]nonadeca-1(18),4(19),5,7,14,16-hexaene-2,2,13-trione]
EC50: < 1000 nM
Emax: > 60%

Cc1cccc(CCC(C)C)c1-c1nc2nc(c1C)OC[C@@H](CC(C)(C)C)N(Cc1cnc3cc(C(C)C)n(C)c3n1)C(=O)c1cccc(c1)S(=O)(=O)N2 (single isomer, unassigned) [Compound I-202]
Emax (18-24 hours): > 60%
EC50: < 1000 nM

Cc1cccc(C)c1-c1cc2nc(n1)NS(=O)(=O)c1cccc(c1)C(=O)N(Cc1cnc3cc(C(C)(C)C)n(C)c3n1)[C@@H](CC1CC(F)(F)C1)CO2 (single isomer, unassigned) [IV-55, 12-[(6-tert-Butyl-5-methyl-pyrrolo[2,3-b]pyrazin-3-yl)methyl]-11-[(3,3-difluorocyclobutyl)methyl]-6-(2,6-dimethylphenyl)-2,2-dioxo-9-oxa-2λ^6-thia-3,5,12,19-tetrazatricyclo[12.3.1.14,8]nonadeca-1(18),4(19),5,7,14,16-hexaen-13-one]
EC50: < 1000 nM
Emax: > 60%

Cc1cccc(C)c1-c1cc2nc(n1)NS(=O)(=O)c1cccc(c1)C(=O)N(Cc1cnc3oc(C4CC4)cc3n1)[C@@H](C1(C(C)C)CC1)CO2 (single isomer, unassigned) [IV-61, 12-[(6-cyclopropylfuro[2,3-b]pyrazin-2-yl)methyl]-6-(2,6-dimethylphenyl)-11-(1-isopropylcyclopropyl)-2,2-dioxo-9-oxa-2λ^6-thia-3,5,12,19-tetrazatricyclo[12.3.1.14,8]nonadeca-1(18),4(19),5,7,14,16-hexaen-13-one]
EC50: 1000 to 3000 nM
Emax: > 60%

Cc1cccc(C)c1-c1cc2nc(n1)NS(=O)(=O)c1cccc(c1)C(=O)N(Cc1cnc3cc(C(C)(C)C)n(C)c3n1)[C@H](C1CCCO1)CO2 (single isomer, unassigned) [IV-96]
EC50: < 1000 nM
Emax: > 60%

Cc1cccc(C)c1-c1cc2nc(n1)NS(=O)(=O)c1cccc(c1)C(=O)N(Cc1cnc3cc(C(C)(C)C)n(C)c3n1)[C@H](C1CCCO1)CO2 (single isomer, unassigned) [IV-97]
EC50: < 1000 nM

Cc1cccc(C)c1-c1cc2nc(n1)NS(=O)(=O)c1cccc(c1)C(=O)N(Cc1cnc3oc(C4CC4)cc3n1)[C@H]([C@H](C)OC(C)(C)C)CO2 (stereo in doubt) [IV-80]
EC50: 1000 to 3000 nM
Emax: > 60%
